Assay results reported in patent US6936585B2, “Corticotropin releasing factor 2 receptor agonists” (priority 2002, dated 2005).
Read-outs that look alike come from different tables or passages of the source. Peptide text beside a SMILES is read from it.

Key:
CRF1R = target: T1, CRF1R (Homo sapiens, UniProt P34998); assay: CRF1R agonist activation (EC50 / Emax), called comparative CRF binding; format: cell-based; conditions: for Emax: read-out: CRF1R Emax
T1 sequence (P34998 24-415): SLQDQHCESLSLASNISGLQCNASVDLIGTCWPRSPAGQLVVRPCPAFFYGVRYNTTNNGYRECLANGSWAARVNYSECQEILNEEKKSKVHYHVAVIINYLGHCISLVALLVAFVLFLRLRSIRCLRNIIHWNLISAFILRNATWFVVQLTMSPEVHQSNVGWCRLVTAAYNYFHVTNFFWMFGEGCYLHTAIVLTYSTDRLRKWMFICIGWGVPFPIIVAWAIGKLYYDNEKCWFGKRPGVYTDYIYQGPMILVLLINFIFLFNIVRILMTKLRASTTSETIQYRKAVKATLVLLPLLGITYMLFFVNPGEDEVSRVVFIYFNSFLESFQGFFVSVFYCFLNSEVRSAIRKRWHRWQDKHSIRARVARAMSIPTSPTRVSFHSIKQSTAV
How it was run: (§1)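 Cells expressing human CRF1R or CRF2R are exposed to peptide or vehicle control, and receptor activation is read as cAMP induction, measured in cell lysates or via a CRE-linked reporter gene.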

CRF2R = target: T2, CRF2R (Homo sapiens, UniProt Q13324); assay: CRF2R agonist activation (EC50 / Emax), called comparative CRF binding; format: cell-based; conditions: for Emax: read-out: CRF2R Emax
T2 sequence (Q13324 1-411): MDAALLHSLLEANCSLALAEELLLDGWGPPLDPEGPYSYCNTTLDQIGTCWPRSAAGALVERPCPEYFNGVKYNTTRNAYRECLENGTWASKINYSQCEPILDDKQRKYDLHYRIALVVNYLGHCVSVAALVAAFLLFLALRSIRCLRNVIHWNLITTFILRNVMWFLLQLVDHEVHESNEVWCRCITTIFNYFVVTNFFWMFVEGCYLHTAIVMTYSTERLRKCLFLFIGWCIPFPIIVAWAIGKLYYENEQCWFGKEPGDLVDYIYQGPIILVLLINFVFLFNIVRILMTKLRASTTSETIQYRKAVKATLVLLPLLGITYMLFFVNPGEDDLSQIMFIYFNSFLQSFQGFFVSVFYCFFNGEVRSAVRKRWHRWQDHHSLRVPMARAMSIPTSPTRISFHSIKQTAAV
How it was run: as §1

Row | SMILES | Emax (CRF1R) [%] | Emax (CRF2R) [%] | EC50 (CRF1R; CRF1R EC50) [nM] | EC50 (CRF2R) [nM] | EC50 (CRF1R; read-out: CRF1R EC50) [nM] | EC50 (CRF2R; read-out: CRF2R EC50) [nM]
1 | CC[C@H](C)[C@H](N)C(=O)N[C@H](C(=O)N[C@@H](CC(C)C)C(=O)N[C@@H](CO)C(=O)N[C@@H](CC(C)C)C(=O)N[C@@H](CC(=O)O)C(=O)N[C@H](C(=O)N1CCC[C@H]1C(=O)N[C@H](C(=O)NCC(=O)N[C@@H](CC(C)C)C(=O)N[C@@H](CC(C)C)C(=O)N[C@@H](CCC(N)=O)C(=O)N[C@@H](CCCCN)C(=O)N[C@H](C(=O)N[C@H](C(=O)N[C@@H](CCC(=O)O)C(=O)N[C@H](C(=O)N[C@@H](CCC(=O)O)C(=O)N[C@@H](CCCCN)C(=O)N[C@@H](CCC(N)=O)C(=O)N[C@@H](CCC(=O)O)C(=O)N[C@@H](CCCCN)C(=O)N[C@@H](CCC(=O)O)C(=O)N[C@@H](CCCCN)C(=O)N[C@@H](CCC(N)=O)C(=O)N[C@@H](CCC(N)=O)C(=O)N[C@@H](C)C(=O)N[C@H](C(=O)N[C@H](C(=O)N[C@@H](CC(N)=O)C(=O)N[C@@H](C)C(=O)N[C@@H](CCCNC(=N)N)C(=O)N[C@H](C(=O)N[C@@H](CC(C)C)C(=O)N[C@@H](C)C(=O)N[C@@H](CCCNC(=N)N)C(=O)N[C@H](C(N)=O)C(C)C)[C@@H](C)CC)[C@@H](C)O)[C@@H](C)O)[C@@H](C)CC)[C@@H](C)CC)C(C)C)[C@@H](C)CC)C(C)C)C(C)C [compound 300] (H-IVLSLDVPIGLLQKVIEIEKQEKEKQQATTNARILARV-NH2; N-terminus assumed) | 7.95 | 100 | – | – | – | –
2 | CC[C@H](C)[C@H](N)C(=O)N[C@H](C(=O)N[C@@H](CC(C)C)C(=O)N[C@@H](CO)C(=O)N[C@@H](CC(C)C)C(=O)N[C@@H](CC(=O)O)C(=O)N[C@H](C(=O)N1CCC[C@H]1C(=O)N[C@H](C(=O)NCC(=O)N[C@@H](CC(C)C)C(=O)N[C@@H](CC(C)C)C(=O)N[C@@H](CCC(N)=O)C(=O)N[C@@H](CCCCN)C(=O)N[C@@H](CCSC)C(=O)N[C@H](C(=O)N[C@@H](CCC(=O)O)C(=O)N[C@H](C(=O)N[C@@H](CCC(=O)O)C(=O)N[C@@H](CCCCN)C(=O)N[C@@H](CCC(N)=O)C(=O)N[C@@H](CCC(=O)O)C(=O)N[C@@H](CCCCN)C(=O)N[C@@H](CCC(=O)O)C(=O)N[C@@H](CCCCN)C(=O)N[C@@H](CCC(N)=O)C(=O)N[C@@H](CCC(N)=O)C(=O)N[C@@H](C)C(=O)N[C@H](C(=O)N[C@H](C(=O)N[C@@H](CC(N)=O)C(=O)N[C@@H](C)C(=O)N[C@@H](CCCNC(=N)N)C(=O)N[C@H](C(=O)N[C@@H](CC(C)C)C(=O)N[C@@H](C)C(=O)N[C@@H](CCCNC(=N)N)C(=O)N[C@H](C(N)=O)C(C)C)[C@@H](C)CC)[C@@H](C)O)[C@@H](C)O)[C@@H](C)CC)[C@@H](C)CC)[C@@H](C)CC)C(C)C)C(C)C [compound 322] (H-IVLSLDVPIGLLQKMIEIEKQEKEKQQATTNARILARV-NH2; N-terminus assumed) | 10.7 | 96.5 | ≥ 1000 | 23.1 | – | –
3 | CC[C@H](C)[C@H](NC(=O)[C@H](CCC(=O)O)NC(=O)[C@H](C)NC(=O)[C@H](CC(N)=O)NC(=O)[C@H](CCC(N)=O)NC(=O)[C@H](CCC(=O)O)NC(=O)[C@H](C)NC(=O)[C@H](CCCNC(=N)N)NC(=O)[C@H](CCC(=O)O)NC(=O)[C@H](CCCNC(=N)N)NC(=O)[C@H](CCC(N)=O)NC(=O)[C@H](CO)NC(=O)[C@H](CCC(N)=O)NC(=O)[C@@H](NC(=O)[C@H](CCCCN)NC(=O)[C@H](CCC(=O)O)NC(=O)[C@H](CC(C)C)NC(=O)[C@H](CCC(=O)O)NC(=O)[C@H](CC(C)C)NC(=O)[C@H](CC(C)C)NC(=O)[C@@H](NC(=O)[C@H](CCCNC(=N)N)NC(=O)[C@H](CC(C)C)NC(=O)[C@H](CC(C)C)NC(=O)[C@H](CC(C)C)NC(=O)[C@H](CC(C)C)NC(=O)[C@@H]1CCCN1C(=O)[C@H](CC(C)C)NC(=O)[C@H](CC(=O)O)NC(=O)[C@@H](NC(=O)[C@H](CO)NC(=O)[C@H](CC(C)C)NC(=O)[C@H](CO)NC(=O)[C@@H]1CCCN1C(=O)[C@H](CC(N)=O)NC(=O)[C@@H](N)CC(=O)O)[C@@H](C)CC)[C@@H](C)O)[C@@H](C)O)C(=O)N[C@@H](Cc1ccccc1)C(=O)N[C@@H](C)C(=O)N[C@@H](CCC(=O)O)C(=O)N[C@H](C(N)=O)C(C)C [compound 323] (H-DNPSLSIDLPLLLLRTLLELEKTQSQRERAEQNAEIFAEV-NH2; N-terminus assumed) | 36.9 | 100 | – | – | – | –
4 | CC[C@H](C)[C@H](NC(=O)[C@H](CCC(N)=O)NC(=O)[C@H](C)NC(=O)[C@H](CC(N)=O)NC(=O)[C@H](CCC(N)=O)NC(=O)[C@H](CCC(=O)O)NC(=O)[C@H](C)NC(=O)[C@H](CCCNC(=N)N)NC(=O)[C@H](CCC(=O)O)NC(=O)[C@H](CCCNC(=N)N)NC(=O)[C@H](CCC(N)=O)NC(=O)[C@H](CO)NC(=O)[C@H](CCC(N)=O)NC(=O)[C@@H](NC(=O)[C@H](CCCCN)NC(=O)[C@H](CCC(=O)O)NC(=O)[C@H](CC(C)C)NC(=O)[C@H](CCC(=O)O)NC(=O)[C@H](CC(C)C)NC(=O)[C@H](CC(C)C)NC(=O)[C@@H](NC(=O)[C@H](CCCNC(=N)N)NC(=O)[C@H](CC(C)C)NC(=O)[C@H](CC(C)C)NC(=O)[C@H](CC(C)C)NC(=O)[C@H](CC(C)C)NC(=O)[C@@H]1CCCN1C(=O)[C@H](CC(C)C)NC(=O)[C@H](CC(=O)O)NC(=O)[C@@H](NC(=O)[C@H](CO)NC(=O)[C@H](CC(C)C)NC(=O)[C@H](CO)NC(=O)[C@@H]1CCCN1C(=O)[C@H](CC(N)=O)NC(=O)[C@@H](N)CC(=O)O)[C@@H](C)CC)[C@@H](C)O)[C@@H](C)O)C(=O)N[C@@H](Cc1ccccc1)C(=O)N[C@@H](C)C(=O)N[C@@H](Cc1c[nH]cn1)C(=O)N[C@H](C(N)=O)C(C)C [compound 324] (H-DNPSLSIDLPLLLLRTLLELEKTQSQRERAEQNAQIFAHV-NH2; N-terminus assumed) | 46.6 | 100 | – | – | ≥ 1000 | 17.2
5 | CC[C@H](C)[C@H](NC(=O)[C@H](CC(N)=O)NC(=O)[C@H](C)NC(=O)[C@H](CC(N)=O)NC(=O)[C@H](CCC(N)=O)NC(=O)[C@H](CCC(=O)O)NC(=O)[C@H](C)NC(=O)[C@H](CCCNC(=N)N)NC(=O)[C@H](CCC(=O)O)NC(=O)[C@H](CCCNC(=N)N)NC(=O)[C@H](CCC(N)=O)NC(=O)[C@H](CO)NC(=O)[C@H](CCC(N)=O)NC(=O)[C@@H](NC(=O)[C@H](CCCCN)NC(=O)[C@H](CCC(=O)O)NC(=O)[C@H](CC(C)C)NC(=O)[C@H](CCC(=O)O)NC(=O)[C@H](CC(C)C)NC(=O)[C@H](CC(C)C)NC(=O)[C@@H](NC(=O)[C@H](CCCNC(=N)N)NC(=O)[C@H](CC(C)C)NC(=O)[C@H](CC(C)C)NC(=O)[C@H](CC(C)C)NC(=O)[C@H](CC(C)C)NC(=O)[C@@H]1CCCN1C(=O)[C@H](CC(C)C)NC(=O)[C@H](CC(=O)O)NC(=O)[C@@H](NC(=O)[C@H](CO)NC(=O)[C@H](CC(C)C)NC(=O)[C@H](CO)NC(=O)[C@@H]1CCCN1C(=O)[C@H](CC(N)=O)NC(=O)[C@@H](N)CC(=O)O)[C@@H](C)CC)[C@@H](C)O)[C@@H](C)O)C(=O)N[C@@H](Cc1ccccc1)C(=O)N[C@@H](C)C(=O)N[C@@H](CC(N)=O)C(=O)N[C@H](C(N)=O)C(C)C [compound 326] (H-DNPSLSIDLPLLLLRTLLELEKTQSQRERAEQNANIFANV-NH2; N-terminus assumed) | 30.1 | 100 | – | – | ≥ 1000 | 33.7
6 | CC[C@H](C)[C@H](NC(=O)[C@H](CCC(N)=O)NC(=O)[C@H](C)NC(=O)[C@H](CC(N)=O)NC(=O)[C@H](CCC(N)=O)NC(=O)[C@H](CCC(=O)O)NC(=O)[C@H](C)NC(=O)[C@H](CCCNC(=N)N)NC(=O)[C@H](CCC(=O)O)NC(=O)[C@H](CCCNC(=N)N)NC(=O)[C@H](CCC(N)=O)NC(=O)[C@H](CO)NC(=O)[C@H](CCC(N)=O)NC(=O)[C@@H](NC(=O)[C@H](CCCCN)NC(=O)[C@H](CCC(=O)O)NC(=O)[C@H](CC(C)C)NC(=O)[C@H](CCC(=O)O)NC(=O)[C@H](CC(C)C)NC(=O)[C@H](CC(C)C)NC(=O)[C@@H](NC(=O)[C@H](CCCNC(=N)N)NC(=O)[C@H](CC(C)C)NC(=O)[C@H](CC(C)C)NC(=O)[C@H](CC(C)C)NC(=O)[C@H](CC(C)C)NC(=O)[C@@H]1CCCN1C(=O)[C@H](CC(C)C)NC(=O)[C@H](CC(=O)O)NC(=O)[C@@H](NC(=O)[C@H](CO)NC(=O)[C@H](CC(C)C)NC(=O)[C@H](CO)NC(=O)[C@@H]1CCCN1C(=O)[C@H](CC(N)=O)NC(=O)[C@@H](N)CC(=O)O)[C@@H](C)CC)[C@@H](C)O)[C@@H](C)O)C(=O)N[C@@H](Cc1ccccc1)C(=O)N[C@@H](C)C(=O)N[C@@H](CCC(N)=O)C(=O)N[C@H](C(N)=O)C(C)C [compound 327] (H-DNPSLSIDLPLLLLRTLLELEKTQSQRERAEQNAQIFAQV-NH2; N-terminus assumed) | 36.5 | 100 | – | – | – | –
